From PubChem BioAssay AID1259407 (Chemical Carcinogenesis Research Information System (CCRIS), 2018)
Calls of active or inactive are those of the source. The rule behind the calls is not given here.

System: CCRIS mutagenicity, Ames/micronucleus/aberration tests
Assay: CCRIS mutagenicity studies

C=CCN=C=S
mutagenic call (End Point: IN VITRO CHROMOSOMAL ABERRATIONS, Test System: CHINESE HAMSTER OVARY CELLS, Metabolic Activation: NONE): active; positive
mutagenic call (End Point: IN VITRO CHROMOSOMAL ABERRATIONS, Test System: CHINESE HAMSTER OVARY CELLS, Metabolic Activation: RAT, LIVER, S-9, AROCLOR 1254): active; positive
mutagenic call (End Point: IN VITRO CHROMOSOMAL ABERRATIONS, Test System: CHINESE HAMSTER OVARY CELLS, Metabolic Activation: RAT. LIVER, S-9, AROCLOR 1254): inactive; negative
mutagenic call (Test System: AMES SALMONELLA TYPHIMURIUM, Strain/Indicator: TA97, Metabolic Activation: NONE, Method: PREINCUBATION): inactive; negative
mutagenic call (Test System: AMES SALMONELLA TYPHIMURIUM, Strain/Indicator: TA97, Metabolic Activation: NONE, Method: PREINCUBATION (120 MIN)): inactive; negative
mutagenic call (Test System: AMES SALMONELLA TYPHIMURIUM, Strain/Indicator: TA97, Metabolic Activation: RAT, LIVER, S-9, AROCLOR 1254, Method: PREINCUBATION): inactive; negative
mutagenic call (Test System: AMES SALMONELLA TYPHIMURIUM, Strain/Indicator: TA97, Metabolic Activation: S-9, Method: PREINCUBATION (120 MIN)): inactive; negative
mutagenic call (Test System: AMES SALMONELLA TYPHIMURIUM, Strain/Indicator: TA98, Metabolic Activation: NONE, Method: PREINCUBATION (120 MIN)): inactive; negative
mutagenic call (Test System: AMES SALMONELLA TYPHIMURIUM, Strain/Indicator: TA98, Metabolic Activation: NONE, Method: STANDARD PLATE): inactive; negative
mutagenic call (Test System: AMES SALMONELLA TYPHIMURIUM, Strain/Indicator: TA98, Metabolic Activation: RAT LIVER S-9, AROCLOR 1254, Method: STANDARD PLATE): active; positive
mutagenic call (Test System: AMES SALMONELLA TYPHIMURIUM, Strain/Indicator: TA98, Metabolic Activation: S-9, Method: PREINCUBATION (120 MIN)): inactive; negative
mutagenic call (Test System: AMES SALMONELLA TYPHIMURIUM, Strain/Indicator: TA98, Metabolic Activation: S-9, Method: STANDARD PLATE): inactive; negative
mutagenic call (Test System: AMES SALMONELLA TYPHIMURIUM, Strain/Indicator: TA100, Metabolic Activation: NONE, Method: PREINCUBATION (20, 60 OR 120 MIN)): inactive; negative
mutagenic call (Test System: AMES SALMONELLA TYPHIMURIUM, Strain/Indicator: TA100, Metabolic Activation: NONE, Method: PREINCUBATION (120 MIN)): inactive; negative
mutagenic call (Test System: AMES SALMONELLA TYPHIMURIUM, Strain/Indicator: TA100, Metabolic Activation: NONE, Method: STANDARD PLATE): inactive; negative
mutagenic call (Test System: AMES SALMONELLA TYPHIMURIUM, Strain/Indicator: TA100, Metabolic Activation: RAT LIVER S-9, AROCLOR 1254, Method: STANDARD PLATE): active; positive
mutagenic call (Test System: AMES SALMONELLA TYPHIMURIUM, Strain/Indicator: TA100, Metabolic Activation: RAT, LIVER, S-9, AROCLOR 1254 (3.8 MG PROTEIN/ML), Method: PREINCUBATION (60 OR 120 MIN)): active; positive
mutagenic call (Test System: AMES SALMONELLA TYPHIMURIUM, Strain/Indicator: TA100, Metabolic Activation: RAT, LIVER, S-9, AROCLOR 1254 (3.8 OR 11.4 MG PROTEIN/ML), Method: PREINCUBATION (20 MIN)): inactive; negative
mutagenic call (Test System: AMES SALMONELLA TYPHIMURIUM, Strain/Indicator: TA100, Metabolic Activation: RAT, LIVER, S-9, AROCLOR 1254 (11.4 MG PROTEIN/ML), Method: PREINCUBATION (60 MIN)): inactive; negative
mutagenic call (Test System: AMES SALMONELLA TYPHIMURIUM, Strain/Indicator: TA100, Metabolic Activation: RAT, LIVER, S-9, AROCLOR 1254 (11.4 MG PROTEIN/ML), Method: PREINCUBATION (120 MIN)): active; positive
mutagenic call (Test System: AMES SALMONELLA TYPHIMURIUM, Strain/Indicator: TA100, Metabolic Activation: S-9, Method: PREINCUBATION (120 MIN)): inactive; negative
mutagenic call (Test System: AMES SALMONELLA TYPHIMURIUM, Strain/Indicator: TA100, Metabolic Activation: S-9, Method: STANDARD PLATE): inactive; negative
mutagenic call (Test System: AMES SALMONELLA TYPHIMURIUM, Strain/Indicator: TA102, Metabolic Activation: NONE, Method: PREINCUBATION): inactive; negative
mutagenic call (Test System: AMES SALMONELLA TYPHIMURIUM, Strain/Indicator: TA102, Metabolic Activation: RAT, LIVER, S-9, AROCLOR 1254, Method: PREINCUBATION): inactive; negative
mutagenic call (Test System: UDS RAT HEPATOCYTES, Strain/Indicator: THY-INCORP, Metabolic Activation: IN VIVO, Method: AUTORADIOGRAPHY): inactive; negative

C=CC1=C(C)C(/C=c2/[nH]/c(=C\c3[nH]c(/C=C4\NC(=O)C(C)=C4C=C)c(C)c3CCC(=O)O)c(CCC(=O)O)c2C)=NC1=O
mutagenic call (Test System: Ames Salmonella typhimurium, Strain/Indicator: TA98, Metabolic Activation: Liver, S-9, Method: Preincubation): inactive; negative
mutagenic call (Test System: Ames Salmonella typhimurium, Strain/Indicator: TA100, Metabolic Activation: Liver, S-9, Method: Preincubation): inactive; negative
mutagenic call (Test System: Ames Salmonella typhimurium, Strain/Indicator: TA100, Metabolic Activation: None, Method: Preincubation): inactive; negative
mutagenic call (Test System: Ames Salmonella typhimurium, Strain/Indicator: TA102, Metabolic Activation: Liver, S-9, Method: Preincubation): inactive; negative
mutagenic call (Test System: Ames Salmonella typhimurium, Strain/Indicator: TA102, Metabolic Activation: None, Method: Preincubation): inactive; negative

CC[C@H]1O[C@@H]1c1ccccc1
mutagenic call (Test System: AMES SALMONELLA TYPHIMURIUM, Strain/Indicator: TA98, Metabolic Activation: NONE, Method: PREINCUBATION (PHOSPHATE-BUFFERED KCL OR SOLUTE-FREE WATER MEDIA)): inactive; negative
mutagenic call (Test System: AMES SALMONELLA TYPHIMURIUM, Strain/Indicator: TA100, Metabolic Activation: NONE, Method: PREINCUBATION (PHOSPHATE-BUFFERED KCL OR SOLUTE-FREE WATER MEDIA)): inactive; negative
mutagenic call (Test System: AMES SALMONELLA TYPHIMURIUM, Strain/Indicator: TA104, Metabolic Activation: NONE, Method: PREINCUBATION (PHOSPHATE-BUFFERED KCL OR SOLUTE-FREE WATER MEDIA)): inactive; negative
